Data reported in article PMC12049818, “Identification of NUV-244 as a PNPLA3 I148M degrading small molecule” (iScience, 2025).
Residue numbers refer to the chain shown, from its start.

What was measured:
PNPLA3 WT = target: T1, PNPLA3 WT (Homo sapiens, UniProt Q9NST1); assay: nanoDSF thermal shift, PNPLA3 WT protein; type: binding; conditions: ligand 25 μM
T1 construct: Full-length wild-type PNPLA3 (Q9NST1), mutant PNPLA3 (I148M), and PNPLA2 (Q96AD5) were cloned into the pVL1393 vector; Flag (N); made in house; host or cells: SF9 insect cells (baculovirus, pVL1393)
T1 sequence (Q9NST1 1-481): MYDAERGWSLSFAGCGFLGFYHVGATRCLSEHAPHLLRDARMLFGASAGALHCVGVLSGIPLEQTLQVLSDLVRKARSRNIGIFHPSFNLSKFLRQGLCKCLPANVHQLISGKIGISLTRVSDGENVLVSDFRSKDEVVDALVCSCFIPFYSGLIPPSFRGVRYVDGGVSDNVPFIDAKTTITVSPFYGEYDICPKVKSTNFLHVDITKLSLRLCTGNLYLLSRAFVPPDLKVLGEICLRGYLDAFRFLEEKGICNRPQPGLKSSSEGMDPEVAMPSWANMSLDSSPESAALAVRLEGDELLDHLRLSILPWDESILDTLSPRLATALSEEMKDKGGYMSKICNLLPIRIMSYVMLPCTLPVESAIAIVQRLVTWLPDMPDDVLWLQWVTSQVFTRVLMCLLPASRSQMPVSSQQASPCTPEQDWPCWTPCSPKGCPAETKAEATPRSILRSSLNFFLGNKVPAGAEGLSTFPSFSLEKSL
Text: To investigate the mode of action of NUV-244, we evaluated its direct binding to the PNPLA3 I148M protein using nano differential scanning fluorimetry (nanoDSF). In this assay, compounds that bind to a target protein can lead to thermal stabilization, preventing protein denaturation, which is reflected in a shift of the protein melting curve.
Full-length wild-type PNPLA3 (Q9NST1), mutant PNPLA3 (I148M), and PNPLA2 (Q96AD5) were cloned into the pVL1393 vector with an N-terminal Flag-Tag. Proteins were expressed in SF9 cells infected at a multiplicity of infection (MOI) of 1 for 72 hours. Protein purification was performed using a two-step process. The first step involved affinity purification using M2 anti-Flag agarose beads. This was followed by gel filtration chromatography using a Superdex 200 column. Thermal melting experiments were carried out using a Prometheus NT.48 instrument (NanoTemper Technologies). Proteins were prepared in 20 mM Tris-HCl pH 7.4, 100 mM NaCl, 5 % Glycerol, 2 mM DTT and 0.2 mg/mL was used as a final concentration in 50 μL volume. For binding experiments, ligands were added to the mixture at a final concentration of 25 μM, DMSO was used as control. […] The intrinsic protein fluorescence at 330 and 350 nm was recorded. Data were analysed using Prometheus NT.48 software. Thermal shifts (ΔTm) were calculated, and Z-scores greater than 6 indicated robust stabilization. […]

PNPLA3 I148M-tagRFP = target: T2, PNPLA3 I148M-tagRFP (Homo sapiens, UniProt Q9NST1, I148M); assay: Time-lapse imaging of PNPLA3 I148M-tagRFP on lipid droplets in Huh7 cells; type: cell-based; conditions: 1μM or 5μM; Huh7
T2 construct: host or cells: Huh7
T2 sequence (Q9NST1 1-481 I148M): T1 sequence (Q9NST1 1-481) with I148M
Description: To evaluate the kinetics of NUV-244 mediated reduction and degradation of PNPLA3 I148M-tagRFP, we performed time-lapse studies to follow PNPLA3 I148M-tagRFP over time (Figures 5A and 5B). 1μM or 5μM NUV-244 leads to rapid onset of reduction of PNPLA3 I148M-tagRFP on lipid droplets with half maximum effect reached after approximately 2h. To evaluate if PNPLA3 I148M-tagRFP degradation is 26S proteasome dependent, 1μM Bortezomib was co-incubated with NUV-244. Proteasome inhibition prevents PNPLA3 I148M-tagRFP reduction from lipid droplets (Figures 5A and 5B). […] A recent paper identified the E3 ligase responsible for the turnover of endogenous PNPLA3, the ER associated E3 ligase BFAR.[18]
Huh7 cells expressing PNPLA3 I148M-tagRFP were seeded at 4000 cells/well in 30 μL media in 384-well imaging plates (Revvity, PhenoPlate) and stored in a 37°C incubator with 5% CO2 and 95% humidity overnight. Cells were then incubated with Bodipy diluted in growth medium (38nM final concentration) for 1h at 37°C with 5% CO2 and 95% humidity. Cells were treated with DMSO control, 1 μM or 5 μM NUV-244, with or without 1 μM Bortezomib or 5 μM MLN7243. Cells were imaged every 15 minutes over a 20-hour period using an Opera Phenix confocal spinning disc microscope system (Revvity) with a 20x water objective at 561 nm (tagRFP) and 488 nm (BODIPY). Images were analyzed using Harmony software. PNPLA3 I148M-tagRFP intensity on lipid droplets was quantified and compared between treatments.

LX-2 cells = assay: Incucyte growth curves, LX-2; type: cell-based, human; conditions: 1μM or 5μM; compared to DMSO
Description: Huh7, Huh7 PNPLA3 I148M, Huh7 PNPLA3, Hep3b and LX-2 cells were seeded at a concentration of 1000 cells/well in 60 μl of growth medium on 384-well microtiter plates (Revvity, Waltham, MA, USA, PhenoPlate 384-well microplate, #6057308) and stored in a 37°C incubator with 5% CO2 and 95% humidity overnight. Next day cells were treated with DMSO as control (1% final concentration) or compound (1μM or 5μM final concentration) and cell density was recorded in the Incucyte® life cell imager (Sartorius, Göttingen, Germany) every 4 hours over a period of 5 days. Growth curves were generated by monitoring confluence over time. Proliferative capacity of PNPLA3 I148M-expressing cells was compared to control cells, and the restoration of proliferative fitness was analyzed.

`Cc1cccc(Cc2nc(C)c(C(=O)Nc3cc(O)ccc3Cl)s2)c1` [NUV-244] was tested, and the “ΔTm PNPLA3 WT” value (PNPLA3 WT) was 7.02 °C, the “time to half maximum effect of reduction of PNPLA3 I148M-tagRFP on lipid droplets” value (PNPLA3 I148M-tagRFP) was “approximately 2 h” and the “effect on proliferative capacity, LX-2” value (LX-2 cells) was “no effects”.
